# Source: patent US3959256A
# Read-outs that look alike come from different tables or passages of the source.
# Key:
# [1] = tested on: Diplococcus pneumoniae Type III; test: Minimum inhibitory concentration, standard serial dilution method; format: cell-based; conditions: Streptococcus pneumoniae, Brain Heart Infusion broth, 37°C, 24 hours, read-out: Minimum Inhibitory Concentrations
# Experimental: (§1) The minimum inhibitory concentrations of these compounds to various microorganisms were determined according to a standard serial dilution method using Brain Heart Infusion broth as the incubation medium at 37°C, the estimation of the growth of the microorganisms being effected after 24 hours' incubation.
# [2] = tested on: Staphylococcus aureus 209P; test: as above; format: cell-based; conditions: Brain Heart Infusion broth, 37°C, 24 hours, read-out: Minimum Inhibitory Concentrations
# Experimental: as §1
# [3] = tested on: Streptococcus hemolyticus D-90; test: as above; format: cell-based; conditions: Streptococcus pyogenes, D90, Brain Heart Infusion broth, 37°C, 24 hours, read-out: Minimum Inhibitory Concentrations
# Experimental: as §1
# [4] = tested on: Staphylococcus aureus Terajima; test: as above; format: cell-based; conditions: read-out: Minimum Inhibitory Concentrations
# [5] = tested on: Staphylococcus aureus Smith; test: as above; format: cell-based; conditions: read-out: Minimum Inhibitory Concentrations
# [6] = tested on: Staphylococcus albus 1200A; test: as above; format: cell-based; conditions: read-out: Minimum Inhibitory Concentrations
# [7] = tested on: Streptococcus faecalis ATCC 8043; test: as above; format: cell-based; conditions: Enterococcus faecalis, read-out: Minimum Inhibitory Concentrations
# [8] = tested on: Streptococcus hemolyticus Cook; test: as above; format: cell-based; conditions: Streptococcus pyogenes, read-out: Minimum Inhibitory Concentrations
# [9] = tested on: Streptococcus pyogenes D-58; test: as above; format: cell-based; conditions: read-out: Minimum Inhibitory Concentrations
# [10] = tested on: Diplococcus pneumoniae Type I; test: as above; format: cell-based; conditions: Streptococcus pneumoniae, read-out: Minimum Inhibitory Concentrations
# [11] = tested on: Bacillus subtilis PCI 219; test: as above; format: cell-based; conditions: read-out: Minimum Inhibitory Concentrations
# [12] = tested on: Bacillus subtilis ATCC 6633; test: as above; format: cell-based; conditions: read-out: Minimum Inhibitory Concentrations
# [13] = tested on: Bacillus anthracis No.119; test: microbe, parasite or virus in culture; format: cell-based; conditions: NO.119, 24 h, read-out: Minimum Inhibitory Concentrations
# [14] = tested on: Corynebacterium diphtheriae Type gravis; test: Minimum inhibitory concentration, standard serial dilution method; format: cell-based; conditions: read-out: Minimum Inhibitory Concentrations
# [15] = tested on: Corynebacterium diphtheriae Type intermedius; test: as above; format: cell-based; conditions: read-out: Minimum Inhibitory Concentrations
# Sarcina lutea = test: as above; format: cell-based; conditions: Micrococcus luteus, read-out: Minimum Inhibitory Concentrations
# mice = test: Acute toxicity in mice, intraperitoneal; conditions: 3,000 mg/kg intraperitoneally; one week after dosing; 3 mice per group
# Staphylococcus aureus = test: Curative effect in therapeutic treatment of Staphylococcus aureus infections in mice; conditions: oral, immediately after intraperitoneal inoculation, 7th day, 10 mice per group
# [16] = Staphylococcus aureus Terajima, Brain Heart Infusion broth, 37°C, 24 hours
# [17] = Streptococcus hemolyticus Cook, Brain Heart Infusion broth, 37°C, 24 hours
# [18] = Streptococcus pyogenes, D58, 24 h
# [19] = Diplococcus pneumoniae Type I, Brain Heart Infusion broth, 37°C, 24 hours
# [20] = PCI219, Bacillus subtilis PCI 219, Brain Heart Infusion broth, 37°C, 24 hours
# [21] = ATCC6633, Bacillus subtilis ATCC 6633, Brain Heart Infusion broth, 37°C, 24 hours
# [22] = Corynebacterium diphtheriae Type gravis, Brain Heart Infusion broth, 37°C, 24 hours
# [23] = Corynebacterium diphtheriae Type intermedius, Brain Heart Infusion broth, 37°C, 24 hours
# [24] = Sarcina lutea, Brain Heart Infusion broth, 37°C, 24 hours
# [25] = Corynebacterium diphtheriae, 24 h
Structure (SMILES),MIC [1],MIC [2],MIC [3],"MIC [4, 16]","MIC ([5]; Staphylococcus aureus, 24 h)","MIC ([6]; Staphylococcus, 1200A, 24 h)","MIC ([7]; ATCC8043, 24 h)","MIC [8, 17]","MIC [9, 18]","MIC [10, 19]","MIC [11, 20]","MIC [12, 21]",MIC [13],"MIC [14, 22]","MIC [15, 23]",MIC (Sarcina lutea; [24]),Rate of the sacrificed mice (average) (mice),Rate of Surviving Mice (in percentage) (Staphylococcus aureus; 100 mg/kg),Rate of Surviving Mice (in percentage) (Staphylococcus aureus; 200 mg/kg),Rate of Surviving Mice (in percentage) (Staphylococcus aureus; 400 mg/kg),also measured
"CCC(=O)OC1CC(=O)OC(C)CC=CC=CC(OC(C)=O)C(C)CC(CC=O)C(OC2OC(C)C(OC3CC(C)(OCOC(C)=O)C(OC(=O)CC)C(C)O3)C(N(C)C)C2O)C1OC (stereo not shown) [9-O-acetyl-3""-O-acetoxymethyl-SF-837, 9-O-acetyl-3""-O-acetoxymethyl-SF-837 substance]",1.56 µg/mL,1.56 µg/mL,1.56 µg/mL,3.13 µg/mL,1.56 µg/mL,1.56 µg/mL,1.56 µg/mL,0.19 µg/mL,1.56 µg/mL,0.19 µg/mL,0.78 µg/mL,0.78 µg/mL,1.56 µg/mL,0.19 µg/mL,0.19 µg/mL,0.19 µg/mL,0/3,–,–,–,–
"CCC(=O)OCOC1(C)CC(OC2C(C)OC(OC3C(CC=O)CC(C)C(OC(C)=O)C=CC=CCC(C)OC(=O)CC(OC(=O)CC)C3OC)C(O)C2N(C)C)OC(C)C1OC(=O)CC (stereo not shown) [9-O-acetyl-3""-O-propionyloxymethyl-SF-837 substance]",1.56 µg/mL,1.56 µg/mL,1.56 µg/mL,3.13 µg/mL,1.56 µg/mL,1.56 µg/mL,1.56 µg/mL,0.19 µg/mL,1.56 µg/mL,0.19 µg/mL,0.39 µg/mL,0.78 µg/mL,1.56 µg/mL,0.19 µg/mL,0.19 µg/mL,0.19 µg/mL,0/3,67 percentage,100 percentage,100 percentage,–
"CCC(=O)OC1C=CC=CCC(C)OC(=O)CC(OC(=O)CC)C(OC)C(OC2OC(C)C(OC3CC(C)(OCOC(C)=O)C(OC(=O)CC)C(C)O3)C(N(C)C)C2O)C(CC=O)CC1C (stereo not shown) [9-O-propionyl-3""-O-acetoxymethyl-SF-837, 9-O-propionyl-3""-O-acetoxymethyl-SF-837 substance]",1.56 µg/mL,1.56 µg/mL,1.56 µg/mL,3.13 µg/mL,–,1.56 µg/mL,1.56 µg/mL,0.19 µg/mL,–,0.19 µg/mL,0.78 µg/mL,0.78 µg/mL,1.56 µg/mL,0.19 µg/mL,0.19 µg/mL,0.19 µg/mL,0/3,33 percentage,56 percentage,100 percentage,"MIC ([5]; Staphylococcus aureus Smith, Brain Heart Infusion broth, 37°C, 24 hours): 3.13 µg/mL; MIC ([9]; D58, Streptococcus pyogenes D-58, Brain Heart Infusion broth, 37°C, 24 hours): 3.13 µg/mL"
"CCC(=O)OCOC1(C)CC(OC2C(C)OC(OC3C(CC=O)CC(C)C(OC(=O)CC)C=CC=CCC(C)OC(=O)CC(OC(=O)CC)C3OC)C(O)C2N(C)C)OC(C)C1OC(=O)CC (stereo not shown) [9-O-propionyl-3""-O-propionyloxymethyl-SF-837 substance]",1.56 µg/mL,1.56 µg/mL,1.56 µg/mL,3.13 µg/mL,1.56 µg/mL,–,–,–,1.56 µg/mL,0.19 µg/mL,0.78 µg/mL,0.78 µg/mL,1.56 µg/mL,0.19 µg/mL,0.19 µg/mL,0.19 µg/mL,0/3,33 percentage,56 percentage,100 percentage,"MIC ([6]; Staphylococcus albus 1200A, Brain Heart Infusion broth, 37°C, 24 hours): 3.13 µg/mL; MIC ([7]; ATCC8043, Streptococcus faecalis ATCC 8043, Brain Heart Infusion broth, 37°C, 24 hours): 3.13 µg/mL; MIC ([8]; 24 h): 1.56 µg/mL"
"CCC(=O)OC1CC(=O)OC(C)CC=CC=CC(O)C(C)CC(CC=O)C(OC2OC(C)C(OC3CC(C)(O)C(OC(=O)CC)C(C)O3)C(N(C)C)C2O)C1OC (stereo not shown) [SF-837 (the free base), reference compound]",0.04 µg/mL,0.78 µg/mL,1.56 µg/mL,–,0.19 µg/mL,0.78 µg/mL,1.56 µg/mL,–,0.09 µg/mL,–,–,–,0.78 µg/mL,–,–,–,3/3,0 percentage,45 percentage,67 percentage,"MIC ([4]; Staphylococcus aureus, 24 h): 1.56 µg/mL; MIC ([8]; 24 h): 0.09 µg/mL; MIC ([10]; 24 h): 0.04 µg/mL; MIC ([11]; Bacillus subtilis, PCI219, 24 h): 0.78 µg/mL; MIC ([12]; Bacillus subtilis, ATCC6633, 24 h): 1.56 µg/mL; MIC [14, 25]: 0.19 µg/mL; MIC [15, 25]: 0.19 µg/mL; MIC (Sarcina lutea; 24 h): 0.09 µg/mL"
